Assay results from US20170121344A1 (Siga Technologies, Inc., priority 2009, published 2017).

What follows are compounds tested on Dengue-2 (Strain New Guinea C) (assay: Viral yield assay against Dengue-2 in Vero cells). Details: Dengue virus, DENV2, Vero, 48 h, read-out: Activity (EC50 in μM) DENV-2.
Assay type: cell-based, Dengue virus
In short: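 Vero cells were infected with dengue virus at an MOI of 0.1, treated with compound or DMSO vehicle, and kept at 37° C. Supernatant virus was harvested 48 hours post infection and titered on Vero cells, with EC50 derived from yield reduction.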

SMILES	EC50 [µM]
Cc1ccccc1NC(=O)c1sc2nc(-c3cccs3)ccc2c1N [Compound 477, 3-amino-N-(o-tolyl)-6-(2-thienyl)thieno [2,3-b]pyridine-2-carboxamide]	< 5

Same assay, conditions: Dengue virus, DENV2; viral yield assay, Vero cells, MOI 0.1, 48 hours post infection; read-out: Activity (EC50 in μM) DENV-2

SMILES	EC50 [µM]
COc1ccc(-c2ccc3c(N)c(C(=O)Nc4cc(C)ccc4C)sc3n2)cc1OC [Compound 524, 3-amino-6-(3,4-dimethoxyphenyl)-N-(2,5-dimethylphenyl)thieno[2,3-b]pyridine-2-carboxamide]	< 5
Cc1cc(C)c2c(C)c(C(=O)Nc3nc4ccccc4s3)sc2n1 [Compound 392, N-(1,3-benzothiazol-2-yl)-3,4,6-trimethyl-thieno[2,3-b]pyridine-2-carboxamide]	5 to 25
COc1ccccc1C(C)N(C)C(=O)c1sc2nc(C)cc(C)c2c1C (centres unmarked) [Compound 409, N-[1-(2-methoxyphenyl)ethyl]-N,3,4,6-tetramethyl-thieno[2,3-b]pyridine-2-carboxamide]	> 25
Cc1ccc(NC(=O)c2sc3nc(-c4ccc5c(c4)OCO5)ccc3c2N)cc1C [Compound 528, 3-amino-6-(1,3-benzodioxol-5-yl)-N-(3,4-dimethylphenyl)thieno[2,3-b]pyridine-2-carboxamide]	< 5
Nc1c(C(=O)Nc2ccc(Cl)c(C(F)(F)F)c2)sc2nc(-c3cccs3)ccc12 [Compound 443, 3-amino-N-[4-chloro-3-(trifluoromethyl)phenyl]-6-(2-thienyl) thieno[2,3-b]pyridine-2-carboxamide]	< 5
COc1ccc(NC(=O)c2sc3nc(-c4ccc(F)cc4)ccc3c2N)c(C)c1 [Compound 624, 3-amio-6-(4-fluorophenyl)-N-(4-methoxy-2-methyl-phenyl)thieno[2,3-b] pyridine-2-carboxamide]	< 5
Nc1c(C(=O)N(CC(=O)O)c2cccc(C(F)(F)F)c2)sc2nc(-c3cccs3)ccc12 [Compound 326]	< 5
Nc1c(C(=O)Nc2ccc(O)cc2)sc2nc(-c3ccc(Cl)cc3)ccc12 [Compound 356, 3-amino-6-(4-chlorophenyl)-N-(4-hydroxy-phenyl) thieno [2,3-b]pyridine-2-carboxamide]	5 to 25
CCOc1cccc(NC(=O)c2sc3nc(-c4cccc(OC)c4)ccc3c2N)c1 [Compound 552, 3-amino-N-(3-ethoxyphenyl)-6-(3-methoxyphenyl)thieno[2,3-b]pyridine-2-carboxamide]	< 5
CC1=NN(C(=O)c2sc3nc(-c4cccs4)cc(C(F)(F)F)c3c2C)C(O)(C(F)(F)F)C1 (centres unmarked) [Compound 387, [5-hydroxy-3-methyl-5-(trifluoromethyl)-4H-pyrazol-1-yl]-[3-methyl-6-(2-thienyl)-4-(trifluoromethyl)thieno[2,3-b]pyridin-2-yl]methanone]	5 to 25
COc1cccc(-c2ccc3c(N)c(C(=O)Nc4ccc(F)cc4F)sc3n2)c1 [Compound 502, 3-amino-N-(2,4-difluorophenyl)-6-(3-methoxyphenyl)thieno[2,3-b]pyridine-2-carboxamide]	< 5
O=C(Nc1ccc(OC(F)(F)F)cc1)c1sc2ncccc2c1OCc1ccc(Cl)c(Cl)c1 [Compound 378, 3-[(3,4-dichlorophenyl)methoxy]-N-[4-(trifluoromethoxy)phenyl]thieno[2,3-b] pyridine-2-carboxamide]	< 5
Nc1c(C(=O)Nc2cccc(C(F)(F)F)c2)sc2nc(-c3ccc(F)cc3)ccc12 [Compound 456, 3-amino-6-(4-fluorophenyl)-N-[3-(trifluoromethyl)phenyl]thieno[2,3-b] pyridine-2-carboxamide]	< 5
Cc1c(C(=O)NC(C)(C)C)sc2nc(-c3cccs3)cc(C(F)(F)F)c12 [Compound 388, N-tert-butyl-3-methyl-6-(2-thienyl)-4-(trifluoromethyl)thieno[2,3-b]pyridine-2-carboxamide]	< 5

Same assay, conditions: Dengue virus, Vero, 48 h, read-out: Activity (EC50 class) against Dengue-2 Virus in Vero cells

SMILES	EC50 [µM]
COCc1cc(C)nc2sc(C(=O)Nc3ccc(Cl)cc3)c(N)c12 [Compound 81, 3-Amino-4-methoxymethyl-6-methyl-thieno[2,3-b]pyridine-2-carboxylic acid (4-chloro-phenyl)-amide]	5 to 25
CC1(C)Cc2c(c(N3CCOCC3)nc3sc(C(N)=O)c(N)c23)CO1 [Compound 169, 1-Amino-8,8-dimethyl-5-morpholin-4-yl-8,9-dihydro-6H-7-oxa-3-thia-4-aza-cyclopenta[a]naphthalene-2-carboxylic acid amide]	> 25
COCc1cc(C)nc2sc(C(=O)N(c3ccccc3)c3ccccc3)c(N)c12 [Compound 140, 3-Amino-4-methoxymethyl-6-methyl-thieno[2,3-b]pyridine-2-carboxylic acid diphenylamide]	> 25

Same assay, conditions: Dengue virus; Vero cells, MOI 0.1, harvested 48 hours post infection; read-out: Activity (EC50 class) against Dengue-2 Virus in Vero cells

SMILES	EC50 [µM]
CN(C)c1ccnc2sc(C(=O)NCc3ccccc3)c(N)c12 [Compound 77, 3-Amino-4-dimethylamino-thieno[2,3-b]pyridine-2-carboxylic acid benzylamide]	5 to 25
Cc1ccc2c(n1)sc1c(=O)[nH]c(C)nc12 [Compound 154, 2,7-Dimethyl-3H-pyrido[3′,2′:4,5]thieno[3,2-d]pyrimidin-4-one]	> 25
COCc1cc(C)nc2sc(C(=O)Nc3ccccc3)c(N)c12 [Compound 124, 3-Amino-4-methoxymethyl-6-methyl-thieno[2,3-b]pyridine-2-carboxylic acid phenylamide]	> 25
CC1(C)CC(=O)c2cc3c(N)c(C(=O)Nc4ccc5c(c4)OCO5)sc3nc2C1 [Compound 226, 3-Amino-7,7-dimethyl-5-oxo-5,6,7,8-tetrahydro-thieno[2,3-b]quinoline-2-carboxylic acid benzo[1,3]dioxol-5-ylamide]	> 25
CCN1CCCC(NC(=O)c2sc3nc(C)cc(COC)c3c2N)C1 (centres unmarked) [Compound 147, 3-Amino-4-methoxymethyl-6-methyl-thieno[2,3-b]pyridine-2-carboxylic acid (1-ethyl-piperidin-3-yl)-amide]	> 25
Nc1c(C(=O)Nc2ccccc2C(F)(F)F)sc2nc3c(cc12)CCCC3 [Compound 254, 3-Amino-5,6,7,8-tetrahydro-thieno[2,3-b]quinoline-2-carboxylic acid (2-trifluoromethyl-phenyl)-amide]	> 25
CCc1nnc(NC(=O)c2sc3nc4c(cc3c2N)CN(C)CC4)s1 [Compound 268, 3-Amino-6-methyl-5,6,7,8-tetrahydro-thieno[2,3-b][1,6]naphthyridine-2-carboxylic acid (5-ethyl-[1,3,4]thiadiazol-2-yl)-amide]	> 25
Cc1cccc(C)c1NC(=O)c1sc2nc(N)c(C#N)cc2c1N [Compound 127, 3,6-Diamino-5-cyano-thieno[2,3-b]pyridine-2-carboxylic acid (2,6-dimethyl-phenyl)-amide]	> 25
COCc1cc(C)c2c(N)c(C(N)=O)sc2n1 [Compound 68, 3-Amino-6-methoxymethyl-4-methyl-thieno[2,3-b]pyridine-2-carboxylic acid amide]	5 to 25
Cc1ccc(NC(=O)c2sc3nc(C)cc(C(F)(F)F)c3c2N)nc1 [Compound 132, 3-Amino-6-methyl-4-trifluoromethyl-thieno[2,3-b]pyridine-2-carboxylic acid (5-methyl-pyridin-2-yl)-amide]	> 25
CCN1CCc2nc3sc(C(=O)Nc4ccc(C(F)(F)F)cc4)c(N)c3cc2C1 [Compound 21, 3-Amino-6-ethyl-5,6,7,8-tetrahydro-thieno[2,3-b][1,6]naphthyridine-2-carboxylic acid (4-trifluoromethyl-phenyl)-amide]	< 5
